# Data: the supplement of paper PMC10307832
# Columns and labels:
# Assay in all cases: relative viability (nuclei count vs DMSO), 5 days (fraction); higher = more cells survive
# [1] = system: NCI-H1563
# How it was run: (§1)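 One day after seeding in 1536-well plates, lung cancer cell lines were dosed by pin tool. Dosing was either single-drug or a fixed anchor-drug dose plus five library-drug doses (not always all listed) in √10 steps. After 5 days, nuclei were stained in one fix-and-stain step and counted on 4× images, and relative viability is the nuclei count of treated wells over that of vehicle wells, given as the median of duplicate plates.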
# [2] = system: LXF-289
# How it was run: as §1
# [3] = system: NCI-H661
# How it was run: as §1
# [4] = system: NCI-H441
# How it was run: as §1
# [5] = system: NCI-H1792
# How it was run: as §1
# [6] = system: NCI-H727
# How it was run: as §1
# [7] = system: NCI-H520
# How it was run: as §1
# [8] = system: NCI-H1915
# How it was run: as §1
# [9] = system: NCI-H2347
# How it was run: as §1
# [10] = system: NCI-H322M
# How it was run: as §1
# [11] = system: RERF-LC-KJ
# How it was run: as §1
# [12] = system: NCI-H1651
# How it was run: as §1
# [13] = system: NCI-H1355
# How it was run: as §1
# [14] = system: PC-14
# How it was run: as §1
# [15] = system: NCI-H1755
# How it was run: as §1
# [16] = system: NCI-H460
# How it was run: as §1
# [17] = system: NCI-H596
# How it was run: as §1
# [18] = system: LCLC-103H
# How it was run: as §1
# [19] = system: NCI-H3122
# How it was run: as §1
# [20] = system: NCI-H650
# How it was run: as §1
smiles,measurement,setting,value
CC1(C)CCC(c2ccc(Cl)cc2)=C(CN2CCN(c3ccc(C(=O)NS(=O)(=O)c4ccc(N[C@H](CCN5CCOCC5)CSc5ccccc5)c(S(=O)(=O)C(F)(F)F)c4)cc3)CC2)C1 [Navitoclax] + CC(C)C[C@H](NC(=O)[C@H](Cc1ccccc1)NC(=O)c1cnccn1)B(O)O [Bortezomib] (partner 0.002 µM),relative viability,[1]; first compound 0.005 µM,0.83
same,relative viability,[1]; first compound 0.01581 µM,1
same,relative viability,[1]; first compound 0.05 µM,0.748
same,relative viability,[1]; first compound 0.1581 µM,1.05
same,relative viability,[1]; first compound 0.5 µM,1.24
same,relative viability,[2]; first compound 0.005 µM,0.989
same,relative viability,[2]; first compound 0.01581 µM,1.05
same,relative viability,[2]; first compound 0.05 µM,0.928
same,relative viability,[2]; first compound 0.1581 µM,0.967
same,relative viability,[2]; first compound 0.5 µM,0.959
same,relative viability,[3]; first compound 0.005 µM,0.844
same,relative viability,[3]; first compound 0.01581 µM,0.873
same,relative viability,[3]; first compound 0.05 µM,0.785
same,relative viability,[3]; first compound 0.1581 µM,0.827
same,relative viability,[3]; first compound 0.5 µM,0.668
same,relative viability,[4]; first compound 0.005 µM,0.349
same,relative viability,[4]; first compound 0.01581 µM,0.737
same,relative viability,[4]; first compound 0.05 µM,0.379
same,relative viability,[4]; first compound 0.1581 µM,0.424
same,relative viability,[4]; first compound 0.5 µM,0.496
same,relative viability,[5]; first compound 0.005 µM,0.976
same,relative viability,[5]; first compound 0.01581 µM,1.01
same,relative viability,[5]; first compound 0.05 µM,0.995
same,relative viability,[5]; first compound 0.1581 µM,0.964
same,relative viability,[5]; first compound 0.5 µM,0.934
same,relative viability,[6]; first compound 0.005 µM,0.898
same,relative viability,[6]; first compound 0.01581 µM,0.888
same,relative viability,[6]; first compound 0.1581 µM,1.05
same,relative viability,[6]; first compound 0.5 µM,0.767
same,relative viability,[7]; first compound 0.005 µM,0.577
same,relative viability,[7]; first compound 0.01581 µM,0.743
same,relative viability,[7]; first compound 0.05 µM,0.869
same,relative viability,[7]; first compound 0.1581 µM,0.6
same,relative viability,[7]; first compound 0.5 µM,0.712
same,relative viability,[8]; first compound 0.005 µM,0.969
same,relative viability,[8]; first compound 0.01581 µM,0.925
same,relative viability,[8]; first compound 0.05 µM,0.82
same,relative viability,[8]; first compound 0.1581 µM,0.865
same,relative viability,[8]; first compound 0.5 µM,0.929
same,relative viability,[9]; first compound 0.005 µM,1.71
same,relative viability,[9]; first compound 0.05 µM,0.812
same,relative viability,[9]; first compound 0.1581 µM,1.03
same,relative viability,[9]; first compound 0.5 µM,1.09
same,relative viability,[10]; first compound 0.005 µM,1.21
same,relative viability,[10]; first compound 0.01581 µM,1.33
same,relative viability,[10]; first compound 0.05 µM,1.38
same,relative viability,[10]; first compound 0.1581 µM,1.21
same,relative viability,[10]; first compound 0.5 µM,1.22
same,relative viability,[11]; first compound 0.005 µM,1.07
same,relative viability,[11]; first compound 0.01581 µM,1.14
same,relative viability,[11]; first compound 0.05 µM,1
same,relative viability,[11]; first compound 0.1581 µM,1.09
same,relative viability,[11]; first compound 0.5 µM,1.35
same,relative viability,[12]; first compound 0.005 µM,0.918
same,relative viability,[12]; first compound 0.01581 µM,0.916
same,relative viability,[12]; first compound 0.05 µM,0.423
same,relative viability,[12]; first compound 0.1581 µM,0.943
same,relative viability,[12]; first compound 0.5 µM,0.957
same,relative viability,[13]; first compound 0.005 µM,1.02
same,relative viability,[13]; first compound 0.01581 µM,1.24
same,relative viability,[13]; first compound 0.05 µM,1.06
same,relative viability,[13]; first compound 0.1581 µM,1.15
same,relative viability,[13]; first compound 0.5 µM,1.14
same,relative viability,[14]; first compound 0.005 µM,0.876
same,relative viability,[14]; first compound 0.01581 µM,1
same,relative viability,[14]; first compound 0.05 µM,0.934
same,relative viability,[14]; first compound 0.1581 µM,0.865
same,relative viability,[14]; first compound 0.5 µM,0.86
same,relative viability,[15]; first compound 0.005 µM,0.929
same,relative viability,[15]; first compound 0.01581 µM,1.01
same,relative viability,[15]; first compound 0.05 µM,0.723
same,relative viability,[15]; first compound 0.1581 µM,0.903
same,relative viability,[15]; first compound 0.5 µM,0.924
same,relative viability,[16]; first compound 0.005 µM,1.1
same,relative viability,[16]; first compound 0.01581 µM,1.16
same,relative viability,[16]; first compound 0.05 µM,1.4
same,relative viability,[16]; first compound 0.1581 µM,1.01
same,relative viability,[16]; first compound 0.5 µM,0.983
same,relative viability,[17]; first compound 0.005 µM,1.22
same,relative viability,[17]; first compound 0.01581 µM,0.81
same,relative viability,[17]; first compound 0.05 µM,0.904
same,relative viability,[17]; first compound 0.1581 µM,1.22
same,relative viability,[17]; first compound 0.5 µM,0.914
same,relative viability,[18]; first compound 0.005 µM,1.13
same,relative viability,[18]; first compound 0.01581 µM,1.25
same,relative viability,[18]; first compound 0.05 µM,1.18
same,relative viability,[18]; first compound 0.1581 µM,1.15
same,relative viability,[18]; first compound 0.5 µM,1.06
same,relative viability,[19]; first compound 0.005 µM,1.04
same,relative viability,[19]; first compound 0.01581 µM,1.02
same,relative viability,[19]; first compound 0.05 µM,1.04
same,relative viability,[19]; first compound 0.1581 µM,1.03
same,relative viability,[19]; first compound 0.5 µM,1.01
same,relative viability,[20]; first compound 0.005 µM,0.742
same,relative viability,[20]; first compound 0.01581 µM,0.959
same,relative viability,[20]; first compound 0.05 µM,0.817
same,relative viability,[20]; first compound 0.1581 µM,0.767
same,relative viability,[20]; first compound 0.5 µM,0.837
